# Legend:
# CYP1A2 = target: T1, CYP1A2 (Homo sapiens, UniProt P05177); assay: Metabolic stability in HLMs with or without specific CYP inhibitor (α-naphthoflavone); format: in vitro ADME; design: HLMs (1 mg protein·mL^-1); tissue BioIVT; host or cells: pooled human liver microsomes; conditions: HLMs 1 mg protein/mL, substrate 1 μM, α-naphthoflavone 2 µM
# T1 sequence (P05177 1-516): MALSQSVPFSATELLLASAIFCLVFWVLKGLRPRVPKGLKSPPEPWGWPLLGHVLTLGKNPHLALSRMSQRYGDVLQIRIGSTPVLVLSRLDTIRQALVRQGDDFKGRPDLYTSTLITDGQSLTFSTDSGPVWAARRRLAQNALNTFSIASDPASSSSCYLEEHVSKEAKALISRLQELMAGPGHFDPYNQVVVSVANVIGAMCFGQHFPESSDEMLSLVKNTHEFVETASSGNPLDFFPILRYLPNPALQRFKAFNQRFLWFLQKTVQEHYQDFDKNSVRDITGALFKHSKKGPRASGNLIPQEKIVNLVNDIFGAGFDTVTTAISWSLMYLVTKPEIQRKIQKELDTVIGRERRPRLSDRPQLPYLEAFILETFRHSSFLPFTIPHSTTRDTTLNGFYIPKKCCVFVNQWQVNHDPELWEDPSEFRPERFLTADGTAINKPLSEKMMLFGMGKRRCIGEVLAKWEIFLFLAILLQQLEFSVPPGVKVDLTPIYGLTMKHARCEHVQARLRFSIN
# Description: Before starting the experiments, the HLMs were thawed gently on ice. Metabolic stability incubations were performed at 37 °C. The incubations contained 100 mM phosphate buffer saline (PBS, pH 7.4), HLMs (1 mg protein·mL^-1), dimethyl sulfoxide (DMSO, blank control) or a selective CYP inhibitor, and BPI-460372 or positive control substrates (final incubation concentration, 1 μM). The incubation process started with the addition of NADPH (1 mM final concentration) after a 5-minute preincubation period. The chemical inhibitors were as follows: a-naphthoflavone (2 µM) for CYP1A2, ticlopidine (20 µM) for 2B6, quercetin (20 µM) for CYP2C8, sulfaphenazole (20 µM) for CYP2C9, ticlopidine (200 µM) for CYP2C19, quinidine (20 µM) for CYP2D6, and ketoconazole (20 µM) for CYP3A [9]. Aliquots were maintained in acetonitrile containing internal standard (IS) at various time points, such as 0 min, 5 min, 10 min, 20 min, 30 min, and 60 min. All incubations were performed in triplicate, and the concentration in the supernatant was determined by liquid chromatography-tandem mass spectrometry (LC-MS/MS).
# The elimination rate constant k (min^-1) was obtained by linear regression from the natural logarithm of the […] of the parent drug and the incubation time. The inhibition rate was calculated using equation 1 [10]: […]
# 4-week toxicity study = format: in vivo; conditions: rats
# mouse hepatocytes = assay: in vitro
# Description: (§1) After mixing, 20 μL of cell suspension was serially transferred into 200 μL of cold acetonitrile containing IS at the time points of 0, 5, 15, 30, 60, and 120 min, respectively.
# (§2) The metabolic stability was assessed by measuring the depletion of substrate. The half-life (t1/2), intrinsic clearance (CLint, in virto, µL·min^-1·million cells^-1), whole liver intrinsic clearance (CLint, in vivo, mL·min-1·kg^-1), and in vivo hepatic clearance (CLH, mL·min-1·kg^-1) were calculated following a reported method. In the calculation of CLH, the fraction drug unbound (Fub) was set as 1. The hepatic blood flow, liver weight, and hepatocellularity of five species were used for the calculation of CLint, in vivo [13, 14]. The hepatic extraction ratio (Eh) means the ratio of CLH to hepatic blood flow.
# monkey hepatocytes [1] = assay: in vitro
# Description: as §1, §2
# human hepatocytes = assay: in vitro
# Description: as §1, §2
# in vitro = conditions: hepatocytes
# Description: as §1, §2
# monkey hepatocytes [2] = assay: Metabolism and metabolite formation in hepatocytes; format: in vitro ADME, cynomolgus monkey; conditions: cynomolgus monkey hepatocytes, 10 µM BPI-460372, 4 h incubation
# Excerpt: All the samples were duplicates.
# [3] = Metabolite identification in rat plasma, urine, feces and bile; format: in vivo, SD rats
# Method in brief: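 Pooled sex-specific samples from SD rats: plasma after 12 mg/kg, urine, feces and bile (collected over 0-48 h) after 6 mg/kg; beagle dog plasma after 8 mg/kg. Acetonitrile extraction (urine centrifuged only), dried, redissolved in acetonitrile/water 20:80, analysed by UHPLC-Orbitrap-HRMS.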
# [4] = oral 6 mg/kg BPI-460372, average of male and female pooled samples
compound,measurement,setting,value
C=C(F)C(=O)N1CC(n2c(=O)n(-c3ccc(C(F)(F)F)cc3)c3nccnc32)C1 [BPI-460372],Inhibition Rate,CYP1A2,32.7%
same,Main target organs,4-week toxicity study,kidney
same,CLH,"mouse hepatocytes; ICR, mouse, 1 µM",36.6 mL/min/kg
same,Eh,"mouse hepatocytes; ICR, mouse, 1 µM",0.406
same,Remaining percentage after 120 min incubation,"mouse hepatocytes; ICR, mouse, hepatocytes, 2 h, 1 µM",54.7%
same,"CLint, in vivo",mouse hepatocytes; hepatocytes,61.6 mL/min/kg
same,"CLint, in virto","mouse hepatocytes; mouse, hepatocytes",5.187 µL·min^-1·Million cells^-1
same,Clearance class from Eh,"mouse hepatocytes; mouse, hepatocytes",moderate clearance
same,CLH,"monkey hepatocytes [1]; cynomolgus monkey, 1 µM",11.1 mL/min/kg
same,Eh,"monkey hepatocytes [1]; cynomolgus monkey, 1 µM",0.253
same,"CLint, in vivo",monkey hepatocytes [1]; hepatocytes,14.9 mL/min/kg
same,"CLint, in virto","monkey hepatocytes [1]; monkey, hepatocytes",4.145 µL·min^-1·Million cells^-1
same,Clearance class from Eh,"monkey hepatocytes [1]; monkey, hepatocytes",low clearance
same,Remaining percentage after 120 min incubation,"monkey hepatocytes [1]; monkey, hepatocytes, 2 h, 1 µM",61.7%
same,"CLint, in vivo",human hepatocytes; hepatocytes,2.7 mL/min/kg
same,CLH,"human hepatocytes; human, 1 µM",2.4 mL/min/kg
same,Eh,"human hepatocytes; human, 1 µM",0.115
same,"CLint, in virto","human hepatocytes; human, hepatocytes",0.746 µL·min^-1·Million cells^-1
same,Clearance class from Eh,"human hepatocytes; human, hepatocytes",low clearance
same,Remaining percentage after 120 min incubation,"human hepatocytes; human, hepatocytes, 2 h, 1 µM",97.3%
same,half-life at 1 µM,"in vitro; ICR, mouse",2.23 h
same,half-life at 1 µM,"in vitro; SD, rat",3.93 h
same,half-life at 1 µM,"in vitro; beagle, dog",3.19 h
same,half-life at 1 µM,in vitro; human,15.5 h
same,half-life at 1 µM,in vitro; monkey,2.79 h
same,UV (314 nm) Peak Areas Relative Abundance,monkey hepatocytes [2],63.98%
same,"Relative abundance of MS peak areas, Rat Bile 0-48 h",[3]; [4],0.67%
same,"Relative abundance of MS peak areas, Rat Feces 0-48 h",[3]; [4],16.95%
same,"Relative abundance of MS peak areas, Rat Urine 0-48 h",[3]; [4],0.12%
same,"Relative abundance of MS peak areas, Rat Plasma 0-24 h","[3]; oral 12 mg/kg BPI-460372, average of male and female pooled samples",75.36%

# From paper PMC12376128, “In vitro and In Vivo Drug Metabolism Analysis of BPI-460372 - A Covalent TEAD1/3/4 Inhibitor” (Current Drug Metabolism, 2025)
